{"source": "paper PMC10938758", "about": "“A phenotypic screen of the Global Health Priority Box identifies an insecticide with anthelmintic activity” (Parasites & Vectors, 2024)", "key": {"[1]": {"assay": "Cytotoxicity on HepG2 cells (glucose medium, crystal violet)", "format": "cell-based", "conditions": "human, D-glucose medium, read-out: half-maximal cytotoxic concentration (CC50)", "protocol": "The cytotoxic and mitotoxic activity of MMV1794206 on HepG2 human hepatoma cells was evaluated using an established protocol. The test compounds were serially diluted (seven-point, twofold serial dilution, 40–0.63 µM) in Dulbecco’s modified Eagle medium (DMEM; Thermo Fisher Scientific, USA), with GlutaMax™ supplemented with 25 mM D-glucose (cytotoxicity) or D-galactose (mitotoxicity), 10% heat-inactivated foetal bovine serum (FBS), 100 IU/ml of penicillin, 100 µg/ml of streptomycin and 0.25 µg/ml of amphotericin B (denoted as DMEM*). Monepantel and moxidectin (prepared in the same manner as the test compound) were included as reference compounds. Two compounds, doxorubicin (cytotoxic; Sigma-Aldrich, USA) and M-666 (mitotoxic; [57]), were used as positive controls at a single concentration of 10 µM. A solution of DMEM* + 0.25% (v/v) DMSO was used as a negative control. HepG2 cells were seeded into wells of a 96-well plate in 80 µl of DMEM* (at 1 × 10^5 cells per well) and allowed to adhere for 16 h at 37 °C and 5% (v/v) CO2 at > 90% humidity prior to incubation with individual compounds, at a final volume of 100 µl. […] Following 48 h of incubation with compounds, cell viability was determined by crystal violet staining. The absorbance (595 nm) of treated cells was normalised using the negative controls (viability: 100%) to calculate the cell viability. […]"}, "[2]": {"test_system": "HepG2 human hepatoma cells", "assay": "Mitotoxicity on HepG2 cells (galactose medium, crystal violet)", "format": "cell-based", "conditions": "48 h, D-galactose medium, serum-starved", "protocol": "The cytotoxic and mitotoxic activity of MMV1794206 on HepG2 human hepatoma cells was evaluated using an established protocol. […] Monepantel and moxidectin (prepared in the same manner as the test compound) were included as reference compounds. Two compounds, doxorubicin (cytotoxic; Sigma-Aldrich, USA) and M-666 (mitotoxic; [57]), were used as positive controls at a single concentration of 10 µM. A solution of DMEM* + 0.25% (v/v) DMSO was used as a negative control. HepG2 cells were seeded into wells of a 96-well plate in 80 µl of DMEM* (at 1 × 10^5 cells per well) and allowed to adhere for 16 h at 37 °C and 5% (v/v) CO2 at > 90% humidity prior to incubation with individual compounds, at a final volume of 100 µl. For the assessment of mitochondrial toxicity, cells were starved of serum (DMEM* without FBS) for 4 h prior to the incubation with compounds [60, 61]. Following 48 h of incubation with compounds, cell viability was determined by crystal violet staining. The absorbance (595 nm) of treated cells was normalised using the negative controls (viability: 100%) to calculate the cell viability. All compounds and controls were tested in triplicate. […]"}, "H. contortus xL3s": {"test_system": "H. contortus xL3s", "assay": "H. contortus dose-response assay, xL3 motility", "parameters": "species or system Haemonchus contortus", "protocol": "The dose–response assay for H. contortus followed a well-established protocol; it was employed to evaluate the potency of hit compounds against this nematode. Test compounds were assessed individually for an effect on the motility of xL3s (10-point, twofold serial dilution in LB*, 40–0.16 μM). One compound, monepantel (prepared in the same manner as the test compounds), was used as a positive control. A solution of LB* was used as a negative control. The test and positive-control compounds were arrayed in triplicate across individual flat-bottom 96-well microplates, with six wells on each plate containing the negative control. Three hundred xL3s of H. contortus in 50 μl of LB* were added to each well to give a final volume of 100 μl. Plates were then placed in a CO2 incubator (10% [v/v] CO2, 38 °C, > 90% humidity). […] Over a period of 15 min, disturbance of an infrared beam in individual wells was recorded as a worm activity count. Raw activity counts for each well were normalised to the negative controls. The compound concentrations were log10-transformed and fitted using a variable-slope four-parameter equation, using the ordinary least squares fit model, employing GraphPad Prism (v.9.1.0). Larval development was established at 168 h of incubation with compound, as described previously. The development inhibition and phenotypes of larvae were examined microscopically. A one-way analysis of variance (ANOVA) with a Tukey multiple comparison test or an unpaired t-test was used to establish statistically significant differences in larval motility or development."}, "C. elegans young adults": {"test_system": "C. elegans young adults", "assay": "C. elegans dose-response assay, motility", "parameters": "species or system Caenorhabditis elegans", "protocol": "The dose–response assay for C. elegans followed a well-established protocol and was employed to evaluate the potency of hit compounds against this nematode. Test and positive-control compounds as well as negative controls were prepared in 96-well microplates (cf.). One hundred C. elegans in 50 μl of LB* were added to each well to give a final volume of 100 μl. Plates were then placed in an incubator at 20 °C for 40 h. At 40 h, worm activity was captured using a WMicroTracker ONE unit. Raw activity counts for each well were normalised to the negative controls. The compound concentrations were log10-transformed and fitted using a variable-slope four-parameter equation, using the ordinary least squares fit model, employing GraphPad Prism (v.9.1.0). A one-way ANOVA with a Tukey multiple comparison test or an unpaired t-test was used to establish statistically significant differences in larval motility."}}, "data": [{"smiles": "CC(F)c1ncnc(NCCc2ccc(OC(F)(F)F)cc2)c1Cl", "note": "(stereo not drawn) [MMV1794206, flufenerim]", "values": [{"measurement": "CC50 at 48 h", "setting": "[1]", "value": "< 700", "unit": "nM"}, {"measurement": "half-maximal mitotoxic concentration (MC50)", "setting": "[2]", "value": "< 0.7", "unit": "µM"}, {"measurement": "IC50", "setting": "H. contortus xL3s; Haemonchus contortus, 90 h, read-out: IC50, H. contortus larval motility inhibition", "value": 18000, "unit": "nM"}, {"measurement": "Maximum motility inhibition (MMI), H. contortus larvae", "setting": "H. contortus xL3s; xL3s, 90 h of incubation", "value": 98, "unit": "%"}, {"measurement": "Maximum motility inhibition (MMI), C. elegans", "setting": "C. elegans young adults; 40 h of incubation", "value": 100, "unit": "%"}, {"measurement": "IC50", "setting": "C. elegans young adults; Caenorhabditis elegans, 40 h, read-out: IC50, C. elegans young adult motility, 40 h of incubation", "value": 220, "unit": "nM"}]}]}
